Measurements as given in US9315544B2, “Method of treating eosinophilia by administering an immunomodulating peptide” (National Tsing Hua University, priority 2012, dated 2016).

Tests used:
[1] = tested on: mite-induced airway hyperresponsiveness; assay: Mite-induced airway hyperresponsiveness, pause enhancement (Penh) by whole-body plethysmography; assay type: in vivo, BALB/c mouse
From the text: (§1) FIG. 4 illustrates experimental design. All groups except control group were immunized with mite crude extract allergen on days 1 and 8, then mite crude extract allergen intratracheally on day 15 in all mite treated group, BALB/c mouse were divided into six groups (1) control group (PBS), (2) mites delivered intratracheally (mIT, mite on day 15) alone, (3) CMP intranasal (eIN, CMP on days 1 to 22) alone, (4) preventive-treatment group (eIN+mIT, CMP on days 1 to 14, mite on day 15) (5) therapy-treatment group (mIT+eIN, mite on day 15, CMP on days 15 to 22), and (6) preventive- and therapeutic-treatment group (eIN+mIT+eIN, CMP on days 1 to 22, mite on day 15).
FIG. 5 illustrates inhibitory effect of CMP on mite-induced airway hyperresponsiveness. The effect of methacholine (MCh) on pause enhancement (Penh) in mouse exposed to CMP in the presence and absence of mite proteins. Penh was measured in all six treatment groups after stimulation with 6.25, 12.5, or 25 mg/ml MCh for 1 min. The values were presented as a ratio with respect to the baseline Penh (before MCh stimulation) for each group. Each result was expressed as the mean±S.D., n=4. **, P<0.01. ***, P<0.001. […]
Airway responsiveness was measured in mouse on day 22 (i.e., 1 hour after the last challenge) in conscious, spontaneously breathing mouse using a whole-body plethysmography system (Buxco, Wilmington, N.C., USA) as described before (Maeda T, et al, Eur J Biochem 2002, 269, 307-316). […] The chamber-pressure-time wave was continuously measured via a transducer connected to a computer data acquisition system. After a baseline Penh reading for >3 min, mice were serially exposed to increasing concentrations of nebulized methacholine (MCh) (0, 6.25, 12.5, and 25 mg/ml; Sigma, St Louis, Mo., USA) in PBS for 1 min by inhalation. Penh values, which are measured as changes in enhanced pause, tidal volume, and breathing frequency (breaths/minute) for the first 3 min after the end of MCh nebulization, were averaged and used to compare responses among all six-treatment groups. […]

IL-5 = assay: Cytokine ELISA of lung protein extract (IL-5); assay type: in vivo, BALB/c mouse; settings: mIT+eIN, eIN+mIT+eIN and eIN+mIT groups
From the text: as §1
FIG. 9 illustrates inhibitory effect of CMP on lung protein extract. Lung protein extracts from different groups of mouse were assayed for the indicated cytokines. Data represent one of three independent experiments. Levels of CCL-11, IL-5, IL-13 and IL-17A/F levels in lung protein extracts from mouse from treatment groups were measured by Enzyme-linked immunosorbent assay (ELISA). Each result was expressed as the mean±S.D., n=4. **, P<0.01, ***, P<0.001. […]
Levels of cytokines from lung protein extract were measured by ELISA. […] The microplates were read at 450 nm with an ELISA reader (Thermo Labsystems, Waltham, Mass., USA). […]

With NYRWRCKNQN (CMP) the “AHR, response to increasing dose of inhaled methacholine” value ([1]; CMP intranasal, eIN+mIT, mIT+eIN and eIN+mIT+eIN groups) was “significantly decrease”, the “Penh stimulation compared with mite group” value ([1]; eIN+mIT and mIT+eIN groups, 25 mg/ml MCh) was “lower stimulation” and the “Penh/baseline ratio change of mIT group compared with CMP group” value ([1]; mIT vs eIN+mIT+eIN group, 12.5 and 25 mg/ml MCh) was “much higher”. The “IL-5 levels in lung protein extract compared with mIT group” value (IL-5) was “lower”.
